Values of other authors as cited in US5321127A, “Antiplatelet and antithrombotic activity of platelet glycoprotein Ib receptor fragments” (priority 1991, dated 1994).

Test system: vWF binding to platelets
Conditions: literature

Substance: synthetic peptide spanning amino acid residues aspartate235 to lysine262: GpIbα synthetic peptide reported by Katagiri et al. (DVKAMTSNVASVQCDNSDKFPVYKYPGK; UniProt P07359 251-278, looked up, fragment)
- Inhibition of ristocetin-dependent binding of vWF to platelets: inhibited
